Experimental data as given in PMC11729425 (ACS Pharmacology & Translational Science, 2024).

System: human primary IBM cells
Test: Aggresome detection (proteostat) in primary myoblasts from IBM patients
Format: cell-based
Conditions: 4 μM for 24 h
Experimental: Figure 4 1-deoxy-SL species accumulate in muscle and brain tissues during aging and contribute to cellular protein aggregation. (A,B) Heat map representing the abundance of sphingolipids in (A) gastrocnemius muscle and (B) brain with and without treatment with ALT-007 in mice (ALT-007 at 1 mg/kg; DMSO at equivalent volume for 20 weeks). N = 8 per group. Data are shown as log2 fold change. Adjusted P values are indicated as follows: *adjusted P < 0.05; **adjusted P < 0.01; ***adjusted P < 0.001. (C,D) Representative images and quantification of protein aggregates upon 1-deoxy-SA (C) and P053 treatment (D) in human primary IBM cells; both were administered at 4 μM for 24 h. N = 8 per group. (E) Analysis of 1-Deoxy-Spa and 1-DeoxyCer 24:1 levels in myoblasts from healthy and IBM patients. N = 3 per group. (C–E) Quantitative data are expressed as median with IQR and compared using the Mann–Whitney U test. All tests were 2 sided. *P < 0.05, **P < 0.01, ***P < 0.001.
Primary myoblasts from IBM patients and healthy aged matched donors were provided by Hospices Civils de Lyon. Cells were grown in DMEM/F-10 supplemented with 12% FBS (Gibco) and penicillin–streptomycin (1×, Gibco). Cells were cultured on sterilized coverslips in six-well plates (Greiner BioOne, CELLSTAR, 657160). […]

SMILES: CCCCCCCCCCCCCCC[C@@H](O)[C@H](C)N [1-deoxy-SA, 1-deoxy-sphinganine]
- cellular protein aggregates (proteostat signal): significantly exacerbated the accumulation of cellular protein aggregates
